From publication PMC4040390 (Angewandte Chemie (International ed. in English), 2009)

Assays:
Type in all cases: cell-based
Sh-IR = conditions: isomer that blocks Sh-IR
[1] = system: voltage-gated Ca2+ channels expressed in GH3 cells; test: Photosensitization of voltage-gated Ca2+ channels expressed in GH3 cells
[2] = system: voltage-gated Na+ channels expressed in GH3 cells; test: Photosensitization of voltage-gated Na+ channels expressed in GH3 cells
[3] = system: endogenous K+ channels in dissociated hippocampal neurons; conditions: 20 μM extracellular treatment, Iss at +40 mV, n = 10

Compound | Active Isomer (Sh-IR) | photosensitization of voltage-gated Ca2+ channels [1] | photosensitization of voltage-gated Na+ channels [2] | % of Iss blocked (380 vs 500 nm) [3]
C=CC(=O)Nc1ccc(N=Nc2ccc(NC(=O)C[N+](CC)(CC)CC)cc2)cc1 [Compound 1] | trans |  |  | 
CC[N+](CC)(CC)CC(=O)Nc1ccc(/N=N/c2ccc(NC(=O)c3ccccc3)cc2)cc1 [Compound 7, Benzoyl-Azo-QA] | trans | did not photosensitize | did not photosensitize | 35.5% ± 4.7
Propyl-Azo-QA [Compound 10] | preferentially blocks in the cis form |  |  | 
